Measurements published in patent US9446092B2, “Use of a neurofilament peptide for the treatment of glioma” (UNIVERSITE D'ANGERS, priority 2009, dated 2016).
Ends that are not written are not given here.

What was measured:
[1] = test system: primary human glioblastoma cells; assay: MTS assay on primary glioblastoma cells isolated after surgery; type: cell-based; details: 40 nM, 72 h
Procedure: Primary human glioblastoma cells obtained from tissue samples extracted in human brains during surgery are put in culture in a DMEM medium containing glucose, L-glutamine, 10% fetal calf serum, […] (Sigma). Cells were plated (20 000 cells per cm^2) in MW96 and let grow at 37° C. in a humidified incubator gassed with 5% CO2. The peptides and/or drugs are added 48 hours after their plating.
(§1) The effects of peptides on the proliferation of glioma cells or astrocytes were evaluated by the MTS cytotoxicity assay and by counting directly the number of cells. For the MTS assay (Promega), 500 cells were seeded in 96-well plates, incubated at 37° C. for 24 hours, and treated by the peptide at the indicated concentrations for 24, 48 and 72 hours, or with vehicle (PBS or water). Media and peptides were replaced daily. Peptides were prepared in DMEM, and paclitaxel was dissolved in DMSO at a concentration of 2 mM and further diluted into DMEM. Viability was also determined by trypan blue staining. For manual counts, cells were treated with 0.25% trypsin/0.53 mM EDTA, centrifuged, and counted with a hemacytometer following addition of trypan blue dye. At each time, 3 to 6 wells per treatment were counted.

rat neurons = assay: Immunocytochemistry: peptide penetration and microtubule network; type: cell-based; details: 10 μM, 6 h
Procedure: Hippocampal neuronal cultures were prepared from newborn rat brains according to Ray et al. 1993 and Kaech and Banker 2006. Briefly, the hippocampi of animals younger than 2 days were recovered, minced and digested in 0.01% trypsin for one hour at 37° C. Dissociated cells were plated on coverslips precoated with 5 μg/ml poly-1-lysine and 7 μg/ml collagen at densities of 2×10^5/ml and incubated at 37° C. with a 5% CO2 atmosphere. Twenty-four hours later, the plating solution was replaced by B-27 neurobasal medium, and the second day cytosine arabinoside (20 μM) was added to eliminate non-neural cells. Experiments were performed 7 days after plating.
(§2) Cells were plated on coverslips and cultured in media containing biotinylated peptides (10 μM) for 6 hours. Following PBS washing, the cells were fixed for 10 min in 4% paraformaldehyde, and washed 3 times in PBS. […]
(§3) Observations were carried out with an Olympus confocal microscope (BX50) using Fluoview.3.1. […] Images were acquired with a CoolSNAP-HQ2 camera and analyzed with Metamorph 7.1.7.0. software. Cells that are positive for peptide staining and cells with destroyed microtubule network were counted. Experiments on each cell type were repeated at least three times, and minimums of 200 cells were analyzed for each experiment.

rat primary astrocytes = assay: as above; type: cell-based; details: 10 μM, 6 h
Procedure: Rat primary astrocytes were obtained from cultures of cerebral cortex as originally described (McCarthy and de Vellis, 1980). Briefly, the cerebral cortex was dissected from newborn rats and cells were recovered after tissue homogenization, trypsination, and centrifugation. They were grown during 3 weeks in DMEM media with glucose and L-glutamine (Lonza France), containing 10% fetal calf serum (Lonza France), 1% penicillin/streptomycin (Sigma) in humidified incubator gassed with 5% CO2 (37° C.).
as §2, with “PBS. They were then incubated for 10 min in a 0.5% triton X-100 permeabilization solution, washed 3 times in PBS before incubation in a blocking solution (5% BSA) for 15 min.” for “PBS.”
as §3

9L cells [2] = assay: Cell death analysis by flow cytometry (Annexin V / PI); type: cell-based, rat; details: 100 μM, 72 hours, Annexin V/PI FACS
Procedure: (§4) To detect possible apoptotic processes, cells were seeded in 35 mm dishes and cultured in media containing biotinylated peptides (100 μM) or PBS alone for 72 hours. Paclitaxel (40 nM) was used as a positive control to induce apoptosis (Terzis et al., 1997). Cells were then trypsinized, washed in cold PBS, and stained with Annexin V-FITC (BD Pharmingen) in Annexin buffer for 15 min at room temperature. Finally, they were counterstained with 50 μg/mL propidium iodide (Sigma) and analyzed with a FACSCalibur flow cytometer. Experiment on each cell type was repeated three times. 20,000 events per sample were analyzed in each experiment.

F98 cells [3] = assay: as above; type: cell-based, rat; details: 100 μM, 72 hours, Annexin V/PI FACS
Procedure: as §4

primary astrocytes = assay: as above; type: cell-based, rat; details: 100 μM, 72 hours, Annexin V/PI FACS
Procedure: as §4

9L cells [4] = assay: BrdU incorporation (cell proliferation); type: cell-based, rat; details: 100 μM, 72 hours
Procedure: (§5) To assess cell proliferation, 5-bromodeoxyuridine (BrdU) immunohistochemistry was used. Cells were platted on coverslips and cultured in media containing biotinylated peptides (100 μM) for 72 hours, and incubated during 4 hours in the presence of 1 mg/mL BrdU (Sigma). Cells were then washed in PBS, fixed in 3% paraformaldehyde for 10 min and permeabilized with 1% Triton X-100 in PBS for 10 min. Cells were acidified to denature the DNA (2 N HCl, 10 min), neutralized (0.1 M sodium borate, 10 min) and then rinsed extensively in PBS. After blocking with 10% NGS (10 min) the cells were labeled with monoclonal anti-BrdU antibody (1/400) followed by Alexa 568 nm anti-mouse antibody (1/200). Nuclei were stained with 4′6-diaminido-2-phenylindole (DAPI; Sigma). […] Images were acquired with a CoolSNAP HQ2 camera and analyzed with Metamorph 7.1.7.0. software. Minimums of 200 cells were scored for BrdU incorporation, and experiments were repeated at least three times.

F98 cells [5] = assay: BrdU incorporation (cell proliferation); type: cell-based, rat; details: 100 μM, 72 hours
Procedure: as §5

glioma cells = assay: Peptide uptake by glioma cells: temperature/energy dependence and sequence specificity; type: cell-based
Procedure: To evaluate the internalization of fluorescein-labeled NFL-TBS40-63 peptide by FACS, glioma cells or astrocytes were seeded in 35 mm dishes and cultured for 1 hour at 37° C. in media containing fluorescein-labeled NFL-TBS40-63 peptide at increasing concentrations or with vehicle (PBS). Cells were trypsinized, washed twice in cold PBS before incubation with trypsin (1 mg/mL) during 15 min at 37° C. To investigate a possible energy-dependant mechanism for the uptake of the peptide, cells were incubated at 4° C. with 20 μM fluorescein-labeled NFL-TBS2 peptide (after 15 min of 4° C. preincubation), or with 10 mM sodium azide in the presence of 6 mM 2-deoxy-D-glucose for 1 hour to deplete cellular ATP before addition of 20 μM fluorescence-labeled NFL-TBS2 peptide. Cells were then washed once, resuspended in 500 μl containing 50 μg/mL propidium iodide (Sigma, Saint-Quentin Fallavier, France), and analyzed with FACScalibur flow cytometer. Experiment on each cell type was repeated three times. 20,000 events per sample were analyzed in each experiment.

rat astrocytes = assay: BrdU incorporation (cell proliferation); type: cell-based; details: 100 μM, 72 hours
Procedure: as §5

F98 glioma cells [6] = assay: Immunocytochemistry: peptide penetration and microtubule network; type: cell-based, rat; details: 10 μM, 6 h
Procedure: (§6) Cells were plated on coverslips and cultured in media containing biotinylated peptides (10 μM) for 6 hours. Following PBS washing, the cells were fixed for 10 min in 4% paraformaldehyde, and washed 3 times in PBS. They were then incubated for 10 min in a 0.5% triton X-100 permeabilization solution, washed 3 times in PBS before incubation in a blocking solution (5% BSA) for 15 min. Glioma cells and astrocytes were incubated overnight at 4° C. with mouse anti-B-tubulin antibody (Sigma) 1/200, and neurons with mouse anti-Bill-tubulin antibody 1/200. Tubulin and biotinylated peptides were localized using respectively Alexa 568 nm anti-mouse antibody and streptavidin Alexa 488 nm (Molecular Probes) 1/200 for 1 hour, followed by washing in PBS. The preparations were counterstained with 3 μM 4′6-diaminido-2-phenylindole (DAPI; Sigma) for 5 min, and washed twice with PBS. Coverslips were mounted with an antifading solution.
(§7) Observations were carried out with an Olympus confocal microscope (BX50) using Fluoview.3.1. Software or a Leica DMI6000 inverted microscope. Images were acquired with a CoolSNAP-HQ2 camera and analyzed with Metamorph 7.1.7.0. software. Cells that are positive for peptide staining and cells with destroyed microtubule network were counted. Experiments on each cell type were repeated at least three times, and minimums of 200 cells were analyzed for each experiment.

9L glioma cells [7] = assay: as above; type: cell-based, rat; details: 10 μM, 6 h
Procedure: as §6, §7

F98 glioma cells [8] = assay: MTS cytotoxicity assay; type: cell-based, rat; details: 100 μM, 72 hours
Procedure: as §1

9L glioma cells [9] = assay: MTS cytotoxicity assay; type: cell-based, rat; details: 100 μM, 72 hours
Procedure: as §1

[10] = Non tumor-bearing (control) rats, intracerebral peptide injection; type: in vivo, rat

## CC(=O)O[C@H]1C(=O)[C@@]2(C)[C@H]([C@H](OC(=O)c3ccccc3)[C@]3(O)C[C@H](OC(=O)[C@H](O)[C@@H](NC(=O)c4ccccc4)c4ccccc4)C(C)=C1C3(C)C)[C@]1(OC(C)=O)CO[C@@H]1C[C@@H]2O [taxol, paclitaxel]
[1]
  cell survival compared with NFL-TBS40-63 peptide (MTS): at the same level

## NFL-SCR: similarly labeled scrambled peptide, control scrambled sequence of NFL-TBS40-63 (SLGSPSSSVRASYSSSRSYVYSSS; also: N-terminal label (biotin or carboxyfluorescein), not given here for this peptide)
Rat neurons
  cells with altered microtubule network: didn't alter the microtubule network
Rat primary astrocytes
  cells with altered microtubule network: didn't alter the microtubule network
9L cells [2]
  apoptotic response: has no effect
F98 cells [3]
  apoptotic response: has no effect
Primary astrocytes
  apoptotic response: has no effect
9L cells [4]
  inhibition of BrdU incorporation: has no effect
F98 cells [5]
  inhibition of BrdU incorporation: has no effect
Glioma cells
  internalization into glioma cells: absence of internalization
Rat astrocytes
  effect on proliferation (BrdU incorporation): has no effect
F98 glioma cells [6]
  total cells with altered microtubule network (spherical shape, aggregated tubulin): didn't alter the microtubule network
9L glioma cells [7]
  total cells with altered microtubule network (spherical shape, aggregated tubulin): didn't alter the microtubule network

## YSSYSAPVSSSLSVRRSYSSSSGS [NFL-TBS40-63]
F98 glioma cells [8]
  reduction of cell viability (MTS): 60.8%±2.8
9L glioma cells [9]
  reduction of cell viability (MTS): 30.0%±4.4
[10]; injected in normal brain
  cellular defects in normal brain: no major cellular defects
[10]; non tumor-bearing rats treated with the peptide
  clinical signs of distress (weight loss, hunched posture): no clinical signs of distress
[10]; same procedure, days 16, 24 or 30
  elimination of the peptide from normal brain: rapidly eliminated and was not detectable at these time points
